Assay results taken from patent US20200179369A1, “TREATMENT OF DIABETIC NEPHROPATHY” (TAKEDA GMBH, priority 2015, published 2020).

How the values were obtained:
fibronectin mRNA = assay: TGF-β-induced mRNA expression of fibronectin in human mesangial cells; type: cell-based; details: in the presence of forskolin 1 μM, TGF-β 3 ng/mL, 24 h
Procedure: (§1) Human mesangial cells were purchased from DS Pharma Biomedical (US). Compound A was obtained from Takeda GmbH, Konstanz, Germany. Forskolin and dimethyl sulfoxide (DMSO) were purchased from Wako Pure Chemical Industries, Ltd (Japan). Recombinant human TGF-β was purchased from R&D systems (USA).
(§2) On day 0, human mesangial cells were seeded at a cell density of 2×10^5 cells/well in CSC complete medium (Cell Systems, USA) on type 1 collagen-coated 24-well plate (AGC TECHNO GLASS Co. Ltd., Japan) in an atmosphere of 95% air and 5% CO2 at 37° C. On day 1, the cells were serum starved with CMC medium which is not containing serum and growth factors. On day 2, Compound A at final concentrations of 0.001, 0.01, 0.1, 1 and 10 μM or DMSO (control) was added to the culture medium. […] For the measurement of mRNA levels of type 1 collagen α1 chain and fibronectin, total RNA isolated at 24 hours after forskolin/TGF-β stimulation was used. mRNA expression levels were measured by quantitative real-time RT-PCR methods with TaqMan gene expression master mix and ABI PRISM 9700 (Life Technologies, USA) with target mRNA specific primer and probe sets [Human connective tissue growth factor (Hs1026927_g1); Human plasminogen activator inhibitor-1 (Hs00167155_m1); Human type 1 collagenal chain (Hs00164004_m1); Human fibronectin (HS00365052_m1); Humanglyceraldehyde 3-phosphate dehydrogenase (HS2758991_g1)]. […]

[1] = system: diet-induced obese (DIO) mice; assay: Body weight, fat and lean mass, 4 weeks treatment in diet-induced obese (DIO) mice; type: in vivo; details: for body weight change from pretreatment (Day 0): mean ±S.D.
Procedure: Male C57BL/6J mice were obtained from CLEA Japan, Inc. The mice were fed High fat diet D12451 (Research diets, Inc) from 5 week to 54-week old and water ad libitum.
All mice were housed individually in animal cages and used for the study after 2 weeks of acclimation period. Animal groups (n=7) were treated with either vehicle (0.5 w/v % methylcellulose, p.o.) or Compound A (1 mg/kg or 3 mg/kg, p.o. suspension in 0.5w/v % methylcellulose solution) in the evening once a day for 4 weeks from 50 weeks of age. Body weight was measured 2 or 3 times per week. Regarding body composition fast mass and lean mass were measured.
Body composition (fat mass and lean mass) was measured by Echo-MRI-900 (ALOKA Japan).
All data are presented as mean ±S.D. For evaluation of the effects of Compound A, statistical significances between vehicle (p.o.) and Compound A treated groups were analysed with one-tailed Williams' test or Shirley-Williams test when the variances among the groups were homogeneous or heterogeneous, respectively. The p-values less than 0.025 were considered statistically significant in one-tailed Williams' test or Shirley-Williams test. Body weight change from pretreatment (Day 0) was calculated using the following formula: [(BW−BW at Day 0)/BW at Day 0]×100.

[2] = system: type 1 collagen α1 chain mRNA; assay: TGF-β-induced mRNA expression of type 1 collagen α1 chain in human mesangial cells; type: cell-based; details: in the presence of forskolin 1 μM, TGF-β 3 ng/mL, 24 h
Procedure: as §1, §2

[3] = system: uninephrectomized db/db mice; assay: Diabetic nephropathy in uninephrectomized db/db mice, 8 week treatment starting 12 weeks after the uninephrectomy; type: in vivo; details: 8 weeks starting 12 weeks after uninephrectomy
Procedure: The experimental protocol is similar to the experimental protocol described above with the exception that the 8 week treatment with Compound A or irbesartan was started not already at 4 weeks after the uninephrectomy, but only 12 weeks after the uninephrectomy (i.e. when the increase of urinary albumin/creatinine ratio (UACR) is already in a much more advanced stage). Roflumilast was not used as a comparator in this experiment.
Compound A (1, 3 and 10 mg/kg, QD) and irbesartan (50 and 100 mg/kg, QD) were suspended in 0.5% methyl cellulose solution and orally administered to mice for 8 weeks starting 12 weeks after the uninephrectomy.
For evaluation of the effects of Compound A, statistical differences between vehicle- and Compound A treated groups were analyzed with one-tailed Williams' test for GHB, PG and BW and one-tailed Shirley-Williams' test for UACR. For irbesartan, statistical differences between vehicle- and irbesartan treated groups were analyzed with one-tailed Williams' test for UACR, GHb, PG and BW. The P-values less than 0.025 were considered statistically significant in one-tailed Williams' test or one-tailed Shirley-Williams' test.

[4] = system: connective tissue growth factor (CTGF) mRNA; assay: TGF-β-induced mRNA expression of connective tissue growth factor (CTGF) in human mesangial cells; type: cell-based; details: 0.001-10 μM with forskolin 1 μM and TGF-β 3 ng/mL, 6 h
Procedure: as §1, §2

[5] = system: plasminogen activator inhibitor-1 (PAI-1) mRNA; assay: TGF-β-induced mRNA expression of plasminogen activator inhibitor-1 (PAI-1) in human mesangial cells; type: cell-based; details: 0.001-10 μM with forskolin 1 μM and TGF-β 3 ng/mL, 6 h
Procedure: as §1, §2

## CCOc1cc2c(cc1OC)C(c1ccc(=O)n(C)c1)=N[C@@H]1CC[C@@H](O)C[C@H]21 [Compound A, 5-((2R,4aR,10bR)-9-Ethoxy-2-hydroxy-8-methoxy-1,2,3,4,4a,10b-hexahydro-phenanthridin-6-yl)1-methyl-1H-pyridin-2-one]
Fibronectin mRNA
  concentration at which the inhibitory effect on mRNA expression of fibronectin was further enhanced: ≥ 0.1 µM
[1]; 1 mg/kg p.o. once a day
  body weight reduction corrected with vehicle (p.o.)-treated body weight change: −8.7±3.5%
  body weight change from pretreatment (Day 0): −4.9±3.5%
[1]; 3 mg/kg p.o. once a day
  body weight change from pretreatment (Day 0): −17.2±4.0%
[1]; 1 and 3 mg/kg p.o. once a day
  effect on fat mass: dose dependently and significantly decreased fat mass
  effect on lean mass: without affecting lean mass
[2]
  concentration at which the inhibitory effect on mRNA expression of type 1 collagen α1 chain was further enhanced: ≥ 0.1 µM
[3]; 1 mg/kg QD oral
  effect on urinary albumin/creatinine ratio (UACR): suppressed the increase of UACR
[3]; 3 mg/kg QD oral
  effect on urinary albumin/creatinine ratio (UACR): reduced the UACR in the 3 mg/kg and 10 mg/kg group below the value at the beginning of the 8 weeks treatment period
[3]; 10 mg/kg QD oral
  effect on glucose plasma levels (PG): statistical significant effect
  effect on glycosylated hemoglobin (GHb): statistical significant effect
  effect on urinary albumin/creatinine ratio (UACR): reduced the UACR in the 3 mg/kg and 10 mg/kg group below the value at the beginning of the 8 weeks treatment period
[3]; 1, 3 and 10 mg/kg QD oral
  effect on body weight (BW): Neither Compound A nor Irbesartan affected the body weight
  effect on glucose plasma levels (PG): reduced GHb and PG in a dose-dependant manner
  effect on glycosylated hemoglobin (GHb): reduced GHb and PG in a dose-dependant manner
[4]
  effect on TGF-β-induced mRNA expression of CTGF: further suppressed by the treatment with Compound A in a concentration-dependent manner
[5]
  effect on TGF-β-induced mRNA expression of PAI-1: further suppressed by the treatment with Compound A in a concentration-dependent manner
